Assays:
[1] = test system: implanted tumors; conditions: mouse; cited from earlier work
[2] = test system: renal cancer patients; conditions: monotherapy; cited from earlier work
[3] = test system: gastric cancer; conditions: monotherapy; cited from earlier work
[4] = test system: tumors; conditions: treatment with imatinib; cited from earlier work
[5] = test system: tumor interstitial pressure; conditions: rat model; cited from earlier work
[6] = Clinical tolerability of crenolanib, single agent and with chemotherapy; type: in vivo; conditions: single agent and combined with chemotherapy; most common adverse events gastrointestinal toxicities, elevated liver enzymes and bilirubin, edema/effusions
Description: Unlike axitinib, VEGF/VEGFR antibodies are associated with minimal toxicity and the combination of these antibodies and chemotherapy is very well-tolerated. In particular, axinitinib monotherapy (in renal cancer patients) is associated with notable toxicities, including all-grade fatigue, anorexia, nausea, diarrhea and hand-foot syndrome in >25% of patients. Additionally, paclitaxel is less myelosuppressive than docetaxel. These improved toxicities support the combination of crenolanib and an alternative VEGFR inhibitor (including ramucirumab) in addition to and chemotherapy in patients with advanced cancers.

Cc1[nH]c(/C=C2\C(=O)Nc3ccccc32)c(C)c1CCC(=O)O [SU6668]
effect on established tumor blood vessels [1]: regression of established tumor vessels
effect on tumor growth [1]: suppression of tumor growth

Cc1cc(C)c(/C=C2\C(=O)Nc3ccccc32)[nH]1 [SU5416]
effect on established tumor blood vessels [1]: failed to induce regression of established blood vessels
effect on tumor growth [1]: prevented tumor growth

CNC(=O)c1ccccc1Sc1ccc2c(/C=C/c3ccccn3)n[nH]c2c1 [axinitinib]
patients with all-grade fatigue, anorexia, nausea, diarrhea and hand-foot syndrome [2]: > 25%

ramucirumab: antibody against VEGF receptor 2 (VEGFR2)
progression-free survival (PFS) improvement over placebo [3]: 0.8 months
response rate (RR) [3]: 3%

Cc1ccc(NC(=O)c2ccc(CN3CCN(C)CC3)cc2)cc1Nc1nccc(-c2cccnc2)n1 [Imatinib]
effect on anti-tumor effect of paclitaxel [4]: increased anti-tumor effect of paclitaxel
effect on paclitaxel uptake by the tumors [4]: increased paclitaxel uptake by the tumors
effect on capillary-to-interstitium transport of solutes [5]: increase the capillary-to-interstitium transport of solutes
effect on interstitial hypertension [5]: decrease interstitial hypertension

CC1(COc2ccc3c(c2)ncn3-c2ccc3cccc(N4CCC(N)CC4)c3n2)COC1 [crenolanib, 4-Piperidinamine, 1-[2-[5-[(3-methyl-3-oxetanyl)methoxy]-1H-benzimidazol-1-yl]-8-quinolinyl]]
tolerability [6]: generally well tolerated

Source: US11602533B2, “Crenolanib combination therapy” (Arog Pharmaceuticals, Inc., priority 2018, dated 2023)
